Assays:
[1] = target: T1, ileal bile acid active uptake system (Rattus norvegicus, UniProt Q62633); assay: In vivo inhibition of bile acid reabsorption (75SeHCAT, rat); details: male Spraque-Dawley rats, oral gavage twice daily for two days, fecal 75SeHCAT over 24 hours, n=12 total
T1 construct: from tissue; host or cells: whole animal (rat ileum, in vivo)
T1 sequence (Q62633 1-348): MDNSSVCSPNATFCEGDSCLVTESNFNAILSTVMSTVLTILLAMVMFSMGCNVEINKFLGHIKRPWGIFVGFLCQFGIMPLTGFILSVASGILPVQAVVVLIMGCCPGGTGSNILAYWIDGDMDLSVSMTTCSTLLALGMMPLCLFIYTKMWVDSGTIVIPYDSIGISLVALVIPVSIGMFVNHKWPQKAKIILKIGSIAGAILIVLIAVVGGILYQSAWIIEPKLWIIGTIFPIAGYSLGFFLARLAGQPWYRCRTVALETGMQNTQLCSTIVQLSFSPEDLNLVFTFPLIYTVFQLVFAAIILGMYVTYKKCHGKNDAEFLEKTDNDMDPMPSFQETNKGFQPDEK
Description: (I) In vivo Inhibition of Bile Acid Reabsorption
Male Spraque-Dawley rats (CD, Charles River) weighing 220-260 gm were housed in individual cages and fed normal chow. The rats were dosed by oral gavage (1 ml/100 gm body weight) with test compounds as a suspension in 0.5% methylcellulose at 9:00 a.m. and 3:30 p.m. for two days. The control group received 0.5% methylcellose. Two hours after the morning dose on day two, the rats were given a trace amount (1.3 nmoles) of 23,25−^75Se-homocholic acid taurine (^75SeHCAT) in 1.0 ml saline orally. ^75SeHCAT, a synthetic gamma emitting bile acid analog which is absorbed by the ileal bile acid active uptake system similar to taurocholic acid, has been used clinically as a measure of ileal bile acid absorption. Feces were collected over the 24 hours following ^75SeHCAT administration. Fecal content of ^75SeHCAT was determined using a Packard Auto-Gamma 5000 Series gamma-counter. The % inhibition of bile acid reabsorption is calculated as follows: [formula]
The percent of inhibition of bile acid reabsorption in the rat using ^75SeHCAT was used to determine the ED30 (the dose required to give 30% inhibition of bile acid uptake). […]

male Spraque-Dawley rats = assay: Percent cholesterol lowering in rats fed a cholesterol-cholic acid enriched diet; format: in vivo, rat; details: gavage b.i.d. for 3 days and once on day four, hypercholesterolemic rats, serum lipids four hours after last dose
Description: (II) Percent Cholesterol Lowering in Rats
Hypercholesterolemia was induced in male Spraque-Dawley rats (CD, Charles River weighing 200-300 g) by administration of a diet enriched in cholesterol and cholic acid. The diet was prepared from Wayne Laboratory Lab Blocks ground into meal and mechanically mixed with powdered cholesterol and cholic acid to a final concentration (by weight) of 1% and 0.5%, respectively. Prior to administration of the diet, blood was collected under halothane anesthesia by cardiac puncture to determine baseline lipid levels. Serum was obtained for analysis of total cholesterol (TC), high density lipoprotein cholesterol (HDL-C), and dextran-precipitable lipoprotein-cholesterol (VLDL+LDL). The rats were divided into groups so that each group had similar baseline serum lipid levels. Five days following the initial sampling for serum lipids the rats were fed ab lib the cholesterol-cholic acid enriched diet and compound administration was begun. The compound was administered by gavage as a suspension in 0.5% methylcellulose (1 ml/100 g body weight) b.i.d. at 9:00 a.m. and 3:00 p.m. for 3 days and at 9:00 a.m. on day four. Control animals received 0.5% methylcellulose only. The rats were bleed four hours after the last dose for the determination of serum lipids. All blood collections were done after a 4-h fast. Serum TC concentrations were determined enzymatically using reagents obtained from Seragen Diagnostics (2). Serum HDL-C was determined after selective precipitation of VLDL and LDL with dextran sulfate and magnesium sulfate, with reagents from Seragen (3). HDL-C was determined in the supernatant. VLDL+LDL cholesterol was determined as the difference between total and HDL-C. The following results were obtained for Example 1 and Example A, as defined above.

| ED30 (the dose required to give 30% inhibition of bile acid uptake) [1] [mg/kg] | melting point [°C] | SMILES | Percent cholesterol lowering (male Spraque-Dawley rats; dose 0.03 mg/kg) [%] | Percent cholesterol lowering (male Spraque-Dawley rats; dose 0.1 mg/kg) [%] | Percent cholesterol lowering (male Spraque-Dawley rats; dose 0.3 mg/kg) [%] |
| --- | --- | --- | --- | --- | --- |
| 0.048 | 179.6 to 180.2 | CCCC[C@@]1(CC)CN(c2ccccc2)c2cc(Cl)c(O)cc2S(=O)(=O)C1 [Example 1, (3S)-2,3,4,5-Tetrahydro-3-ethyl-3-butyl-5-phenyl-7-chloro-8-hydroxy-1,5-benzothiazepine-1,1-dioxide] | 48 | 56 | 81 |
| 0.17 | – | CCCCC1(CC)CN(c2ccccc2)c2cc(Br)c(O)cc2S(=O)(=O)C1 (stereo not drawn) [Example A, 2,3,4,5-tetrahydro-3-ethyl-3-butyl-5-phenyl-7-bromo-8-hydroxy-1,5-benzothiazepine-1,1-dioxide, reference compound] | 14 | 17 | 53 |
